These results are taken from patent US5856350A, “3-phenyl-1,4-dialkyl-1,2,4-triazolium salts and their use as antidepressants” (Hoechst Marion Roussel, Inc., priority 1996, dated 1999).

The subject of data set [1] is depression; neurodegeneration. The settings on record: prior art compound; cited from earlier work.
Data set [2] concerns Ro 4-1284-induced hypothermia. Kind of data set: Antagonism to Ro 4-1284-induced hypothermia. In kind it is in vivo. The settings on record: male mice, Ro 4-1284 20 mg/kg i.p.; for ED50: Mus musculus, ip. The procedure:
Another assay utilized to evaluate antidepressant activity is testing for the antagonism to Ro 4-1284*--induced hypothermia. (*Niemegeers, Carlos, J. E. "Antagonism of Reserpine--Like Activity", edited by S. Fielding and Lal, published by Futura, pg. 73-98.) In this test, groups of male mice are weighed and housed individually in wire mesh cages. The rectal temperature of each mouse is recorded and the test compound or vehicle is then administered. […] Mice are then placed in a cold room (36° F.) for 30 minutes, and then returned to room temperature for 30 minutes. At this time (60 minutes after Ro 4-1284 administration) the rectal temperature of each mouse is again recorded. […] The final temperatures of control groups of ten Ro 4-1284-treated mice from a number of experiments are combined to form an "historic control" of 100 mice. This control is updated periodically by replacement of the oldest data.

Data set [3] in a line: LD50. The settings on record: in vivo; Table I; species and route not given. The text has this:
The results of testing a number of compounds of formula I for the effects summarized above, as well as their LD50, are summarized in Table I.

In data set [4] the test system is reserpine-induced ptosis. Kind of data set: Prevention of reserpine-induced ptosis in mice. The conditions noted are these: Mus musculus, iv, reserpine 2 mg/kg i.v. In kind it is in vivo. The procedure: In this assay, test groups of weighed mice are housed individually in wire mesh cages and administered test compound or vehicle. At a selected time thereafter, reserpine is administered as a 0.2 mg/ml solution in dilute acetic acid at a dose of 2 mg/kg intravenously into a tail vein. In each assay the animals are examined individually in a Plexiglas® cylinder 90 minutes later. Prevention or delay in ptosis is considered significant if the average closure of both eyes is less than 50% after observing for 30 seconds.

Data set [5] is described as follows: Metabolite identification in the urine of test animals.
[6] abbreviates: 1 h, 60 minute pre-treatment time, i.p., read-out: ED50 for antagonism of Ro 4-1284-induced hypothermia.
[7] abbreviates: Table I, pre-treatment time and route of test compound not given, read-out: Reserpine-Induced Ptosis ED50.
Setting [8] is: Table I, two determinations listed separately where marked *, read-out: Ro 4-1284 Induced Hypothermia ED50.
Where [9] appears, read: 1 h, 60 minute pre-treatment time, read-out: ED50 for prevention of reserpine-induced ptosis.

Like-named read-outs stand apart in the source and are kept apart here. Some results are limits rather than exact numbers.

Consider `Cn1nc(-c2cccc(F)c2)n(C)c1=S` [5-(3-fluorophenyl)-2,4-dimethyl-3H-1,2,4-triazole-3-thione], for which the “known antidepressant and neuroprotective activity” value in data set [1] is recorded as “antidepressant activity as well as activity in tests indicative of protection from neurodegeneration”.
One may read the ED50 as the dose that gives a 50% effect, or the effect in half of the subjects. Turning to `CC(Cc1ccccc1)NN` (stereo not drawn) [catron, reference compound], in data set [2] (setting [6]), the ED50 stood at 0.7 mg/kg.
A word on the LD50: it is the dose expected to kill half of the subjects tested. Take `Cn1c[n+](C)nc1-c1cccc(F)c1` [Rn 3-F--, 3-(3-Fluorophenyl)-1,4-dimethyl-1,2,4-triazolium hydrosulfate]: in data set [3], the LD50 lay within 200 to 400 mg/kg. Moreover, the ED50 in data set [4] (setting [7]) came out at 0.19 mg/kg; in data set [2] (setting [6]) it was 0.34 mg/kg; in data set [2] (setting [8]), 0.34 mg/kg.
As to `CN(C)CCCN1c2ccccc2CCc2ccccc21` [imipramine, reference compound], the ED50 in data set [4] (setting [9]) turned out to be 4.89 mg/kg; in data set [2] (setting [6]), 1.8 mg/kg.
`Cn1c[n+](C)nc1-c1ccc(Cl)cc1` [Rn 4-Cl--, 3-(4-chlorophenyl)-1,4-dimethyl-1,2,4-triazolium hydrosulfate]: the LD50 in data set [3] was 100 to 200 mg/kg. Besides, the results for the ED50 in data set [4] (setting [9]), in data set [4] (setting [7]) and in data set [2] (setting [8]) were 0.09 mg/kg, 0.09 mg/kg and 0.51 mg/kg, respectively.
In data set [3], `Cn1c[n+](C)nc1-c1c(F)cccc1F` [2,6-F2 --] had an LD50 of 100 to 200 mg/kg. Besides, the ED50 in data set [4] (setting [7]) was found to be 5.34 mg/kg; in data set [2] (setting [8]) it was 0.58 mg/kg.
For the molecule `Cn1c[n+](C)nc1-c1ccccc1F` [Rn 2-F--], in data set [3], the LD50 was 100 to 200 mg/kg. For the same molecule, the ED50 in data set [4] (setting [7]) turned out to be 0.28 mg/kg; in data set [2] (setting [8]), 0.74 mg/kg. The “Ro 4-1284 Induced Hypothermia ED50” value in data set [2] (Table I, two determinations listed separately where marked *, 20 mg/kg) amounted to 0.58 mg/kg.
With `Cn1c[n+](C)nc1-c1cccc(F)c1` [3-(3-fluorophenyl)-1,4-dimethyl-1,2,4-triazolium ion], the “urinary metabolite of 5-(3-fluorophenyl)-2,4-dimethyl-3H-1,2,4-triazole-3-thione” value in data set [5] was “identified in the urine of test animals as a metabolite”.
The molecule `COc1c(F)cccc1-c1n[n+](C)cn1C` [3-F-2-CH3 O--] came in with an LD50 in data set [3] of 100 to 200 mg/kg. The 50% effective dose (ED50) came to 1.31 mg/kg in data set [4] (setting [7]) and 2 mg/kg in data set [2] (setting [8]).
As for `CNCCCN1c2ccccc2CCc2ccccc21` [desipramine, reference compound], the ED50 in data set [2] (setting [6]) stood at 0.1 mg/kg.
In turn, `Cn1c[n+](C)nc1-c1ccc(I)cc1` [Rn 4-I--] returned an LD50 in data set [3] of 100 to 200 mg/kg. Besides, the ED50 was 2.82 mg/kg in data set [4] (setting [7]) and above 6.25 mg/kg in data set [2] (setting [8]).
Turning to `COc1ccccc1-c1n[n+](C)cn1C` [2-CH3 O--], the LD50 in data set [3] was in the range of 50 to 100 mg/kg. Moreover, the 50% effective dose (ED50) in data set [4] (setting [7]) was above 12.5 mg/kg; in data set [2] (setting [8]) it was above 3.12 mg/kg.
In data set [3], `Cn1c[n+](C)nc1-c1ccc(Br)cc1` [Rn 4-Br--] yielded an LD50 of 200 to 400 mg/kg. In addition, the ED50 came out at 0.23 mg/kg in data set [4] (setting [7]) and 0.81 mg/kg in data set [2] (setting [8]).
